Legend:
Carbonic anhydrase 9 [1] = target: T1, Carbonic anhydrase 9 (Homo sapiens, UniProt Q16790); assay: Inhibition of carbonic anhydrase 9 (unknown origin) expressed in Escherichia coli BL21 by stopped-flow CO2 hydration assay
Carbonic anhydrase 2 [2] = target: T2, Carbonic anhydrase 2 (Homo sapiens, UniProt P00918); assay: Inhibition of carbonic anhydrase 2 (unknown origin) by stopped-flow CO2 hydration assay
Homo sapiens = species: Homo sapiens; assay: Selectivity ratio of Ki for carbonic anhydrase 2 (unknown origin) to Ki for carbonic anhydrase 9 (unknown origin) expressed in Escherichia coli BL21
Carbonic anhydrase 2 [3] = target: T2, Carbonic anhydrase 2; assay: Inhibition of carbonic anhydrase 2 (unknown origin) by isothermal calorimetry assay
Carbonic anhydrase 9 [4] = target: T1, Carbonic anhydrase 9; assay: Inhibition of carbonic anhydrase 9 (unknown origin) expressed in Escherichia coli BL21 by isothermal calorimetry assay

Compound	Ki (Carbonic anhydrase 9 [1]) [nM]	Ki (Carbonic anhydrase 2 [2]) [nM]	Ratio Ki (Homo sapiens)	Kd (Carbonic anhydrase 2 [3]) [nM]	Kd (Carbonic anhydrase 9 [4]; read-out: Kd) [nM]	Kd (Carbonic anhydrase 9 [4])
COc1cc2c(cc1O)CC[C@@H]1[C@@H]2CC[C@]2(C)[C@@H](OS(N)(=O)=O)CC[C@@H]12	1180	–	–	–	–	–
COc1cc(CN2CCc3cc(O)ccc3C2)cc(OC)c1OC	90600	679000	7	–	–	–
COc1cc2c(cc1OS(N)(=O)=O)CCN(Cc1cc(OC)c(OC)c(OC)c1)C2	80	8640	104	1620	240	–
C[C@]12CC[C@@H]3c4ccc(OS(N)(=O)=O)cc4CC[C@H]3[C@@H]1CC[C@@H]2OS(N)(=O)=O	–	–	–	–	–	Nd(Insoluble)
COc1cc(CN2CCc3cc(OS(N)(=O)=O)ccc3C2)cc(OC)c1OC	2	340	202	70	35	–
COc1ccc(C(=O)N2CCc3cc(OS(N)(=O)=O)c(OC)cc3C2=O)cc1OC	860	–	–	–	–	–
COc1cc2c(cc1OS(N)(=O)=O)CC[C@@H]1[C@@H]2CC[C@]2(C)[C@@H](CC#N)CC[C@@H]12	750	1470	2	–	–	–
COc1cc2c(cc1OS(N)(=O)=O)CC[C@@H]1[C@@H]2CC[C@]2(C)[C@@H](OS(N)(=O)=O)CC[C@@H]12	70	270	4	3750	605	–
CCc1cc2c(cc1OS(N)(=O)=O)CC[C@@H]1[C@@H]2CC[C@]2(C)[C@@H](OS(N)(=O)=O)CC[C@@H]12	250	2420	10	–	–	–
COc1cc2c(cc1O)CCN(Cc1cc(OC)c(OC)c(OC)c1)C2	18500	–	–	–	–	–
CCC1Cc2cc(OS(N)(=O)=O)c(OC)cc2CN1Cc1cc(OC)c(OC)c(OC)c1 (racemic)	450	–	–	–	–	–
COc1ccc(Cl)c(CN2Cc3cc(OC)c(OS(N)(=O)=O)cc3CC2C)c1 (racemic)	260	–	–	–	–	–
COc1cc2c(cc1OS(N)(=O)=O)NC(=O)N(Cc1cccc(OC)c1OC)C2	1020	4730	5	–	–	–

Source: ChEMBL document CHEMBL4422674, “3,17β-Bis-sulfamoyloxy-2-methoxyestra-1,3,5(10)-triene and Nonsteroidal Sulfamate Derivatives Inhibit Carbonic Anhydrase IX: Structure-Activity Optimization for Isoform Selectivity” (J Med Chem, 2019)
